Results: PMC5382891 (Scientific Reports, 2017)
Like-named read-outs stand apart in the source and are kept apart here. Ends that are not written are not given here.

Columns and labels:
[1] = target: T1, human recombinant NOP receptor (Homo sapiens, UniProt P41146); assay: cell-based; type: cell-based
T1 construct: expressed in transfected cells

[2] = test system: mouse vas deferens; assay: electrically stimulated mouse vas deferens bioassay; settings: Table 2; for mVD Emax ± SEM: percent of the control twitch, mean ± SEM of at least 4 separate experiments, footnote a: concentration response curve incomplete due to low potency
Description: The experiments were performed on the mouse vas deferens (mVD). The tissues were taken from male CD-1 mice 16–18 g (Harlan, Ud, Italy). Mice were housed in 425 × 266 × 155 mm cages (Techniplast, Mi, Italy), 8 per cage, all under standard conditions (22 °C, 55% humidity, 12 h light/dark cycle, light on at 7:00 h), with food for mice (4RF, Mucedola, Mi, Italy) and water ad libitum. A mouse red house (Tecniplast, Va, Italy) and nesting materials were present in each cage for mice. The day of the experiment the animals were sacrificed with CO2 overdose. The experimental protocol was approved by the Ethical Committee for the Use of Laboratory Animals of the University of Ferrara and by the Italian Ministry of Health (authorization number 9927, 19/04/2013). The animals were treated in accordance with the European Communities Council directives (2010/63/EU) and national regulations (D.L. 26/2014). Bioassay experiments were performed as previously described. The tissues were suspended in 5 ml organ bath containing Krebs solution (composition in mM: NaCl 118.5, KCl 4.7, KH2PO4 1.2, NaHCO3 25, CaCl2 2.5, glucose 10). The Krebs solution was oxygenated with 95% O2 and 5% CO2. The temperature was set at 33 °C. At resting tension 0.3 g was applied to the mVD. […] The electrically evoked contractions were measured isotonically by means of Basile strain gauge transducers (Basile 7006; srl Ugo Basile, Varese, Italy) and recorder with a computer – based acquisition system (Power Lab 8, ADInstruments, Colorado Springs, USA). […]
The pharmacological terminology adopted in this paper is consistent with IUPHAR recommendations. All data are expressed as the mean ± standard error of the mean (SEM) of n experiments. […] In calcium mobilization experiments, maximum change in fluorescence, expressed as percent over the baseline fluorescence, was used to determine agonist response. Electrically stimulated tissues data are expressed as % of the control twitch induced by electrical field stimulation. […]

T1 sequence (P41146 whole entry): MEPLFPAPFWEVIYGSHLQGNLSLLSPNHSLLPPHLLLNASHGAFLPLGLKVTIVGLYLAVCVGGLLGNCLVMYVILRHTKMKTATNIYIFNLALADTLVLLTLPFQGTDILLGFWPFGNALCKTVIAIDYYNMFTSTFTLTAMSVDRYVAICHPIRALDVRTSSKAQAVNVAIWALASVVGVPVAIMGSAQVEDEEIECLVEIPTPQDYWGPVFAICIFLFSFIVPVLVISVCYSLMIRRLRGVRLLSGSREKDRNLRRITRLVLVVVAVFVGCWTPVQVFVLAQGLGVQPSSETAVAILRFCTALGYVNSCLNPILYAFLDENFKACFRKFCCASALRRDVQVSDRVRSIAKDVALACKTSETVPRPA

“FGGFTGARKSAR-NH2 [compound 10, N/OFQ(1-12)-NH2] [listing 1 of 2 here]” showed an EC50 ([1]; Ca2+ mobilization pEC50 (CL95%)) of 0.2 nM.

“FGGFTGARKSAR-NH2 [compound 10, N/OFQ(1-12)-NH2] [listing 2 of 2 here]” gave an Emax ([1]; CHO, read-out: Ca2+ mobilization Emax ± SEM, SEM) of 204 ± 16%.

“N/OFQ(1-11)-NH2 (FGGFTGARKSA-NH2; UniProt Q13519 130-140, looked up, fragment) [compound 12]” was tested, and the “mVD Emax ± SEM” value ([2]; SEM) was 65 ± 5%^a and the “Ca2+ mobilization Emax ± SEM” value ([1]; SEM) was 182 ± 34%.

In the case of N/OFQ(2-12)-NH2 [compound 14], the “mVD pEC50 (CL95%)” value ([2]; electrically stimulated mouse vas deferens, Krebs solution, 33 °C, cumulative concentration response curves, mean of at least 4 separate experiments, CL95% in brackets, * P < 0.05 versus N/OFQ(1-13)-NH2) is reported as “inactive”, the “mVD Emax ± SEM” value [2] is reported as “inactive” and the “Ca2+ mobilization Emax ± SEM” value [1] is reported as “Inactive”. For the same substance, the “Ca2+ mobilization pEC50 (CL95%)” value [1] was “Inactive”.

For “compound 15: heterodimeric derivative N/OFQ(1-12)-N/OFQ(2-12), 2,2′-disulfanediyldiethanamine spacer (chain 1 FGGFTGARKSAR; chain 2 GGFTGARKSAR)”, the “Ca2+ mobilization pEC50 (CL95%)” value [1] was 9.49 (9.07–9.91).
